Assay results: patent US20260223843A1, “I[…]” (FYTEKO SA, priority 2022, published 2026)

Legend:
Type in all cases: in vivo
[1] = system: brown plant hopper (Nilaparvata lugens); assay: Control of the brown plant hopper in rice plants (spray, mortality); conditions: mortality of hopper larvae on sprayed rice plants; mg/L: Polyferulate 48, Chlorantraniliprole 45, Cyantraniliprole 135, combinations 48 + 45 and 48 + 135
Protocol: To determine the efficacy of insecticides on the mortality percentage of brown planthopper an experiment was conducted in the laboratory. The seedlings of 30-40 days old rice plant (Oryza sativa) were transplanted in plastic pot. The rice plants were grown in plastic pots with Mylar film cage and kept in the laboratory. Rice plants are sprayed with the preparation of the active compound at the desired concentration and are infested with larvae of the brown plant hopper (Nilaparvata lugens) while the rice leaves are still moist. Ten brown planthopper were released in each pot that was selected randomly.
The brown planthopper (BPH), Nilaparvata lugens (Hemiptera: Delphacidae) is a planthopper species that feeds on rice plants (Oryza sativa L.). These insects are among the most important pests of rice, which is the major staple crop for about half the world's population. After 3 days, the mortality in percentage is determined. 100% means that all the hopper larvae have been killed; 0% means that none of the hopper larvae have been killed.

[2] = Insecticide uptake by leaves of rice plants (LC-MS/MS); conditions: chlorantraniliprole in rice leaves 72 h after smearing 5 mL; chlorantraniliprole 100 μg/mL, polyferulate 25 μg/mL where present; three replicates
Protocol: Rice plants were cultivated in a plant growth chamber with a 12 h day and high intensity lighting. The rice leaves near the roots were smeared with 5 mL of solution containing chlorantraniliprole (100 μg·mL−1) or chlorantraniliprole (100 μg·mL−1) and polyferulate solution (25 μg·mL−1) and covered. When the droplets on the leaves were dried, the plastic was taken away. The rice leaves were harvested 72 h after treated. A sample of the rice leaves (5 g) was weighted and extracted with acetonitrile and the content of uptake chlorantraniliprole determinate by LC-MS/MS. Each experiment was repeated for three replicates.

[3] = system: whitefly (Bemisia tabaci); assay: Control of whitefly in cotton plants (translaminar efficacy); conditions: 2nd instar nymphs on cotton leaf, adults counted, mg/L: Polyferulate 4, Spirotetramat 18.6, Imidacloprid 21.8, combinations 4 + 18.6 and 4 + 21.8
Protocol: Three-week-old cotton plants were defoliated so that only one true leaf remained. 20-30 female adults of B. tabaci were clipped to the underside of the leaf for egg deposition and removed after 16 h. The silverleaf whitefly (Bemisia tabaci, also informally referred to as the sweet potato whitefly) is one of several species of whitefly that are currently important agricultural pests.
Once the 2nd instar nymphs had settled the upper side of the leaf was sprayed using a TLC spraying device (Merck Inc.). Before spraying the number of nymphs was counted on each leaf. The application volume was 500 μL of tested insecticides solutions diluted in tap water. The final concentration of each component appears in the table. Translaminar efficacy was evaluated by counting adults 10 days after application.

Row | Compound | Observed efficacy (%) 3 days after treatment [1] | Content of insecticide in the plant material [2] | Observed efficacy (%) 10 days after treatment [3]
1 | CNC(=O)c1cc(Cl)cc(C)c1NC(=O)c1cc(Br)nn1-c1ncccc1Cl [Chlorantraniliprole] | 50% | 38.0 ± 0.3 µg/g | –
2 | CNC(=O)c1cc(C#N)cc(C)c1NC(=O)c1cc(Br)nn1-c1ncccc1Cl [Cyantraniliprole] | 30% | – | –
3 | O=[N+]([O-])NC1=NCCN1Cc1ccc(Cl)nc1 [Imidacloprid] | – | – | 45%
4 | CCOC(=O)OC1=C(c2cc(C)ccc2C)C(=O)N[C@]12CC[C@@H](OC)CC2 [Spirotetramat] | – | – | 75%
